ChEMBL document CHEMBL3885881, “DrugMatrix”

Species on record: Rattus norvegicus
Assay: DrugMatrix - Regimen: Daily Repeat
Type: toxicity, organism-based, Sprague-Dawley
Set-up: regimen Daily Repeat, gender Male, age 6-8 weeks
Conditions: in vivo, po, route oral GAVAGE, vehicle 100 % SALINE; for TOTAL BILIRUBIN / URIC ACID / ALANINE AMINOTRANSFERASE / ALBUMIN / ALKALINE PHOSPHATASE / ASPARTATE AMINOTRANSFERASE / BLOOD UREA NITROGEN / CARBON DIOXIDE / CHLORIDE / CHOLESTEROL / CREATINE PHOSPHOKINASE / CREATININE / GLUCOSE / LIPASE / PHOSPHORUS / POTASSIUM / SODIUM / TOTAL PROTEIN: tissue Plasma; for ABSOLUTE BASOPHIL / ABSOLUTE EOSINOPHIL / ABSOLUTE LYMPHOCYTE / ABSOLUTE MONOCYTE / BASOPHIL / EOSINOPHIL / ERYTHROCYTE COUNT / HEMATOCRIT / HEMOGLOBIN / LEUKOCYTE COUNT / LYMPHOCYTE / MEAN CORPUSCULAR HEMOGLOBIN / MEAN CORPUSCULAR HEMOGLOBIN CONCENTRATION / MEAN CORPUSCULAR VOLUME / MONOCYTE / NEUTROPHIL / PLATELET COUNT: tissue Blood
[1] = 0 mg/kg, 120 h, dose level Control, time 5 day
[2] = 0 mg/kg, […], dose level Control, time 14 day
[3] = 2 mg/kg, 72 h, dose level High, time 3 day
[4] = 2 mg/kg, 120 h, dose level High, time 5 day
[5] = 2 mg/kg, […], dose level High, time 14 day

## COc1cccc2c1C(=O)c1c(O)c3c(c(O)c1C2=O)C[C@@](O)(C(C)=O)C[C@@H]3O[C@H]1C[C@H](N)[C@H](O)[C@H](C)O1 [DAUNORUBICIN]
[1]
  TOTAL BILIRUBIN: 0.37 mg/dL
  URIC ACID: 0.97 mg/dL
[2]
  ABSOLUTE BASOPHIL: 93.3 cells/µL
  ABSOLUTE EOSINOPHIL: 80 cells/µL
  ABSOLUTE LYMPHOCYTE: 6890 cells/µL
  ABSOLUTE MONOCYTE: 170 cells/µL
  BASOPHIL: 1%
  EOSINOPHIL: 0.83%
  ERYTHROCYTE COUNT: 7.03 x10E6/uL
  HEMATOCRIT: 43.4%
  HEMOGLOBIN: 14.83 G/DL
  LEUKOCYTE COUNT: 8.94 x10E3/uL
  LYMPHOCYTE: 77.93%
  MEAN CORPUSCULAR HEMOGLOBIN: 21.1 pg
  MEAN CORPUSCULAR HEMOGLOBIN CONCENTRATION: 34.17 G/DL
  MEAN CORPUSCULAR VOLUME: 61.77 fL
  MONOCYTE: 1.33%
  NEUTROPHIL: 18%
  PLATELET COUNT: 1097.33 x10E3/uL
  ALANINE AMINOTRANSFERASE: 32 u/L
  ALBUMIN: 3.83 G/DL
  ALKALINE PHOSPHATASE: 334.67 u/L
  ASPARTATE AMINOTRANSFERASE: 69.33 u/L
  BLOOD UREA NITROGEN: 16 mg/dL
  CARBON DIOXIDE: 40 mmol/L
  CHLORIDE: 105.67 MEQ/L
  CHOLESTEROL: 70.33 mg/dL
  CREATINE PHOSPHOKINASE: 144.67 u/L
  CREATININE: 0.3 mg/dL
  GLUCOSE: 177.67 mg/dL
  LIPASE: 16.33 u/L
  PHOSPHORUS: 10.83 mg/dL
  POTASSIUM: 5.77 MEQ/L
  SODIUM: 143.33 MEQ/L
  TOTAL BILIRUBIN: 0.33 mg/dL
  TOTAL PROTEIN: 6.37 G/DL
  URIC ACID: 0.17 mg/dL
[3]
  ABSOLUTE BASOPHIL: 110 cells/µL
  ABSOLUTE EOSINOPHIL: 210 cells/µL
  ABSOLUTE LYMPHOCYTE: 7080 cells/µL
  ABSOLUTE MONOCYTE: 140 cells/µL
  BASOPHIL: 1.17%
  EOSINOPHIL: 2.47%
  ERYTHROCYTE COUNT: 6.67 x10E6/uL
  HEMATOCRIT: 42.37%
  HEMOGLOBIN: 13.97 G/DL
  LEUKOCYTE COUNT: 8.7 x10E3/uL
  LYMPHOCYTE: 80.87%
  MEAN CORPUSCULAR HEMOGLOBIN: 20.97 pg
  MEAN CORPUSCULAR HEMOGLOBIN CONCENTRATION: 33 G/DL
  MEAN CORPUSCULAR VOLUME: 63.57 fL
  MONOCYTE: 1.7%
  NEUTROPHIL: 13.37%
  PLATELET COUNT: 1161.67 x10E3/uL
  ALANINE AMINOTRANSFERASE: 34 u/L
  ALBUMIN: 3.9 G/DL
  ALKALINE PHOSPHATASE: 354 u/L
  ASPARTATE AMINOTRANSFERASE: 68 u/L
  BLOOD UREA NITROGEN: 16.67 mg/dL
  CARBON DIOXIDE: 36 mmol/L
  CHLORIDE: 104 MEQ/L
  CHOLESTEROL: 67.67 mg/dL
  CREATINE PHOSPHOKINASE: 219 u/L
  CREATININE: 0.4 mg/dL
  GLUCOSE: 175 mg/dL
  LIPASE: 11 u/L
  PHOSPHORUS: 12.2 mg/dL
  POTASSIUM: 6.47 MEQ/L
  SODIUM: 142.67 MEQ/L
  TOTAL BILIRUBIN: 0.37 mg/dL
  TOTAL PROTEIN: 6.43 G/DL
  URIC ACID: 1.17 mg/dL
[4]
  ABSOLUTE BASOPHIL: 75 cells/µL
  ABSOLUTE EOSINOPHIL: 40 cells/µL
  ABSOLUTE LYMPHOCYTE: 7990 cells/µL
  ABSOLUTE MONOCYTE: 140 cells/µL
  BASOPHIL: 0.9%
  EOSINOPHIL: 0.5%
  ERYTHROCYTE COUNT: 6.82 x10E6/uL
  HEMATOCRIT: 42.9%
  HEMOGLOBIN: 13.75 G/DL
  LEUKOCYTE COUNT: 9.39 x10E3/uL
  LYMPHOCYTE: 84.25%
  MEAN CORPUSCULAR HEMOGLOBIN: 20.2 pg
  MEAN CORPUSCULAR HEMOGLOBIN CONCENTRATION: 32.15 G/DL
  MEAN CORPUSCULAR VOLUME: 62.9 fL
  MONOCYTE: 1.5%
  NEUTROPHIL: 12.5%
  PLATELET COUNT: 1293.5 x10E3/uL
  ALANINE AMINOTRANSFERASE: 27.67 u/L
  ALBUMIN: 3.93 G/DL
  ALKALINE PHOSPHATASE: 361.67 u/L
  ASPARTATE AMINOTRANSFERASE: 66 u/L
  BLOOD UREA NITROGEN: 14.67 mg/dL
  CARBON DIOXIDE: 35 mmol/L
  CHLORIDE: 106.67 MEQ/L
  CHOLESTEROL: 68.67 mg/dL
  CREATINE PHOSPHOKINASE: 274.67 u/L
  CREATININE: 0.4 mg/dL
  GLUCOSE: 192.33 mg/dL
  LIPASE: 9 u/L
  PHOSPHORUS: 11.87 mg/dL
  POTASSIUM: 6.67 MEQ/L
  SODIUM: 146 MEQ/L
  TOTAL BILIRUBIN: 0.37 mg/dL
  TOTAL PROTEIN: 6.33 G/DL
  URIC ACID: 1.37 mg/dL
[5]
  ABSOLUTE BASOPHIL: 120 cells/µL
  ABSOLUTE EOSINOPHIL: 74 cells/µL
  ABSOLUTE LYMPHOCYTE: 8830 cells/µL
  ABSOLUTE MONOCYTE: 250 cells/µL
  BASOPHIL: 1.1%
  EOSINOPHIL: 0.66%
  ERYTHROCYTE COUNT: 7.41 x10E6/uL
  HEMATOCRIT: 45.06%
  HEMOGLOBIN: 15.1 G/DL
  LEUKOCYTE COUNT: 11 x10E3/uL
  LYMPHOCYTE: 80.4%
  MEAN CORPUSCULAR HEMOGLOBIN: 20.36 pg
  MEAN CORPUSCULAR HEMOGLOBIN CONCENTRATION: 33.46 G/DL
  MEAN CORPUSCULAR VOLUME: 60.78 fL
  MONOCYTE: 2%
  NEUTROPHIL: 15.02%
  PLATELET COUNT: 1090.8 x10E3/uL
  ALANINE AMINOTRANSFERASE: 31.8 u/L
  ALBUMIN: 3.88 G/DL
  ALKALINE PHOSPHATASE: 326.6 u/L
  ASPARTATE AMINOTRANSFERASE: 64.8 u/L
  BLOOD UREA NITROGEN: 16.6 mg/dL
  CARBON DIOXIDE: 42.4 mmol/L
  CHLORIDE: 106 MEQ/L
  CHOLESTEROL: 66.4 mg/dL
  CREATINE PHOSPHOKINASE: 203 u/L
  CREATININE: 0.4 mg/dL
  GLUCOSE: 167.6 mg/dL
  LIPASE: 12.4 u/L
  PHOSPHORUS: 9.42 mg/dL
  POTASSIUM: 6.3 MEQ/L
  SODIUM: 144.4 MEQ/L
  TOTAL BILIRUBIN: 0.4 mg/dL
  TOTAL PROTEIN: 6.36 G/DL
  URIC ACID: 0.04 mg/dL
